The text below walks through data of ChEMBL document CHEMBL1137894, “3-Thio-quinolinone maxi-K openers for the treatment of erectile dysfunction” (2004).

For experiment [1], the system named is Oocyte. The experiment can be described thus: Percentage opening of human Maxi-K channel in transfected oocyte cells at 20 uM. Format: cell-based.
The subject of experiment [2] is Oocyte. Kind of experiment: Percentage opening of human Maxi-K channel in transfected oocyte cells at 10 uM. Format: cell-based.
Experiment [3] is filed under the species Oryctolagus cuniculus. The experiment can be described thus: Percentage relaxation of phenylephrine-contracted rabbit corpus cavernosum tissue strips at concentration of 10 uM. Format: functional.
The subject of experiment [4] is Oocyte. Kind of experiment: Percentage opening of human Maxi-K channel in transfected oocyte cells at 5 uM. The format is cell-based.

Regarding `O=C(CCN1CCC(O)CC1)CSc1c(O)nc2ccc(C(F)(F)F)cc2c1-c1cc(Cl)ccc1O`, the Activity in experiment [1] came to 235%.
Compound `CN1CCN(CCC(=O)CSc2c(O)nc3ccc(C(F)(F)F)cc3c2-c2cc(Cl)ccc2O)CC1` gave an Activity in experiment [1] of 550%.
With `CCS(=O)(=O)Nc1ccc(Sc2c(O)nc3ccc(C(F)(F)F)cc3c2-c2cc(Cl)ccc2O)cc1`, in experiment [2], the Activity turned out to be 296%.
`Oc1ccc(Cl)cc1-c1c(SCC(O)CN2CCSCC2)c(O)nc2ccc(C(F)(F)F)cc12` (stereo not drawn) came in with a Relaxation in experiment [3] of 48%. In experiment [1], this compound showed an Activity of 319%.
The compound `CC1CCN(CCCC(=O)CSc2c(O)nc3ccc(C(F)(F)F)cc3c2-c2cc(Cl)ccc2O)CC1` returned an Activity in experiment [1] of 213%.
For the compound `CN(C)CCCN(C)CCC(=O)CSc1c(O)nc2ccc(C(F)(F)F)cc2c1-c1cc(Cl)ccc1O`, in experiment [1], the Activity is 178%.
Take `COc1ccc(Cl)cc1-c1c(SCC(O)CN2CCC(O)CC2)c(O)nc2ccc(C(F)(F)F)cc12` (stereo not drawn): in experiment [1], the Activity was 125%.
In turn, `CN(C)CCN1CCN(CC(O)CSc2c(O)nc3ccc(C(F)(F)F)cc3c2-c2cc(Cl)ccc2O)CC1` (stereo not drawn) registered an Activity in experiment [1] of 113%.
On to `OCCN1CCN(CC(O)CSc2c(O)nc3ccc(C(F)(F)F)cc3c2-c2cc(Cl)ccc2O)CC1` (stereo not drawn), for which the Relaxation in experiment [3] is 44%. In experiment [1], this compound gave an Activity of 287%.
For the compound `CN(C)C1CCN(CC(=O)Nc2ccc(Sc3c(O)nc4ccc(C(F)(F)F)cc4c3-c3cc(Cl)ccc3O)cc2)CC1`, in experiment [3], the Relaxation turned out to be 19%. Moreover, the Activity in experiment [1] was 292%.
Regarding `COc1ccc(Cl)cc1-c1c(SCC(O)CN2CCC(C)CC2)c(O)nc2ccc(C(F)(F)F)cc12` (stereo not drawn), the Activity in experiment [1] is 115%.
The compound `COc1ccc(Cl)cc1-c1c(Sc2ccc(NS(=O)(=O)N(C)C)cc2)c(O)nc2ccc(C(F)(F)F)cc12` had an Activity in experiment [4] of 114%.
Turning to `O=C(CCCN1CCCC1)Nc1ccc(Sc2c(O)nc3ccc(C(F)(F)F)cc3c2-c2cc(Cl)ccc2O)cc1`, in experiment [3], the Relaxation amounted to 36%. In experiment [1], this compound gave an Activity of 280%.
As to `Oc1ccc(Cl)cc1-c1c(SCC(O)CN2CCCC2)c(O)nc2ccc(C(F)(F)F)cc12` (stereo not drawn), the Activity in experiment [1] turned out to be 192%.
Take `O=C(CCN1CCCC1)Nc1ccc(Sc2c(O)nc3ccc(C(F)(F)F)cc3c2-c2cc(Cl)ccc2O)cc1`: the Relaxation in experiment [3] is 35%. Further, the Activity in experiment [1] came to 264%.
As to `NC(=O)C1CCN(C(=O)CSc2c(O)nc3ccc(C(F)(F)F)cc3c2-c2cc(Cl)ccc2O)CC1`, the Relaxation in experiment [3] is recorded as 67%. This compound also displayed an Activity in experiment [1] of 203%.
For `CN1CCN(CCC(=O)Nc2ccc(Sc3c(O)nc4ccc(C(F)(F)F)cc4c3-c3cc(Cl)ccc3O)cc2)CC1`, in that order: 30% and 474%.
For `O=C(CCN1CCN(CCO)CC1)CSc1c(O)nc2ccc(C(F)(F)F)cc2c1-c1cc(Cl)ccc1O`, the Activity in experiment [1] amounted to 241%.
`CN(C)CCN(C)CCC(=O)Nc1ccc(Sc2c(O)nc3ccc(C(F)(F)F)cc3c2-c2cc(Cl)ccc2O)cc1` returned a Relaxation in experiment [3] of 29%. In addition, the Activity in experiment [1] came out at 489%.
For `O=C(CSc1c(O)nc2ccc(C(F)(F)F)cc2c1-c1cc(Cl)ccc1O)N1CCN(CCO)CC1`, the Relaxation in experiment [3] is on record as 22%. In experiment [1], this compound displayed an Activity of 151%.
On to `Oc1ccc(Cl)cc1-c1c(SCC(O)CN2CCOCC2)c(O)nc2ccc(C(F)(F)F)cc12` (stereo not drawn), for which, in experiment [3], the Relaxation came to 49%. The compound further gave an Activity in experiment [1] of 292%.
The compound `O=C(CCN1CCCCC1)CSc1c(O)nc2ccc(C(F)(F)F)cc2c1-c1cc(Cl)ccc1O` displayed an Activity in experiment [1] of 199%.
As for `CCOC(=O)CN1CCN(C(=O)CSc2c(O)nc3ccc(C(F)(F)F)cc3c2-c2cc(Cl)ccc2O)CC1`, the Relaxation in experiment [3] is reported as 19%. In experiment [1], the Activity stood at 281%.
Compound `COc1ccc(Cl)cc1-c1c(SCC(O)CN2CCN(C(C)=O)CC2)c(O)nc2ccc(C(F)(F)F)cc12` (stereo not drawn) showed an Activity in experiment [1] of 192%.
In experiment [3], `O=C(CN1CCCC1)Nc1ccc(Sc2c(O)nc3ccc(C(F)(F)F)cc3c2-c2cc(Cl)ccc2O)cc1` came in with a Relaxation of 28%. In experiment [1], the Activity is 291%.
As for `O=C(CCN1CCOCC1)Nc1ccc(Sc2c(O)nc3ccc(C(F)(F)F)cc3c2-c2cc(Cl)ccc2O)cc1`, the Relaxation in experiment [3] is 22%. In experiment [1], this compound had an Activity of 453%.
As for `CN1CCC(N(C)CCCC(=O)CSc2c(O)nc3ccc(C(F)(F)F)cc3c2-c2cc(Cl)ccc2O)C1` (stereo not drawn), the Activity in experiment [1] stood at 226%.
Consider `CCCS(=O)(=O)Nc1ccc(Sc2c(O)nc3ccc(C(F)(F)F)cc3c2-c2cc(Cl)ccc2O)cc1`, for which, in experiment [4], the Activity came to 255%.
`O=C(CCN1CCN(c2ccccn2)CC1)Nc1ccc(Sc2c(O)nc3ccc(C(F)(F)F)cc3c2-c2cc(Cl)ccc2O)cc1` registered a Relaxation in experiment [3] of 37%. Besides, the Activity in experiment [2] turned out to be 169%.
In turn, `CCN(CC)CC(O)CSc1c(O)nc2ccc(C(F)(F)F)cc2c1-c1cc(Cl)ccc1O` (stereo not drawn) had a Relaxation in experiment [3] of 57%. In experiment [1], the Activity amounted to 192%.
`CN1CCN(CC(=O)Nc2ccc(Sc3c(O)nc4ccc(C(F)(F)F)cc4c3-c3cc(Cl)ccc3O)cc2)CC1` yielded a Relaxation in experiment [3] of 19%. The same compound returned an Activity in experiment [1] of 246%.
In turn, `O=c1[nH]c2ccc(C(F)(F)F)cc2c(-c2cc(Cl)ccc2O)c1CCO` [BMS-223131] showed a Relaxation in experiment [3] of 83.7%. In experiment [1], this compound displayed an Activity of 378%.
In experiment [3], `O=C(CCN1CCC(N2CCCCC2)CC1)Nc1ccc(Sc2c(O)nc3ccc(C(F)(F)F)cc3c2-c2cc(Cl)ccc2O)cc1` displayed a Relaxation of 23%. The Activity in experiment [1] was found to be 255%.
With `O=C(CCCN1CCC(N2CCCCC2)CC1)Nc1ccc(Sc2c(O)nc3ccc(C(F)(F)F)cc3c2-c2cc(Cl)ccc2O)cc1`, the Relaxation in experiment [3] was 28%. For the same compound, the Activity in experiment [1] came out at 268%.
`O=C(CN1CCN(c2ccccn2)CC1)Nc1ccc(Sc2c(O)nc3ccc(C(F)(F)F)cc3c2-c2cc(Cl)ccc2O)cc1` gave an Activity in experiment [4] of 116%. In experiment [3], this compound came in with a Relaxation of 17%.
With `CN(C)C1CCN(C(=O)CSc2c(O)nc3ccc(C(F)(F)F)cc3c2-c2cc(Cl)ccc2O)CC1`, the Relaxation in experiment [3] is reported as 35%. In experiment [1], this compound gave an Activity of 286%.
With `O=C(CCCN1CCN(c2ccccn2)CC1)Nc1ccc(Sc2c(O)nc3ccc(C(F)(F)F)cc3c2-c2cc(Cl)ccc2O)cc1`, the Relaxation in experiment [3] is on record as 37%. The same compound registered an Activity in experiment [2] of 197%.
`COc1ccc(Cl)cc1-c1c(Sc2ccc(NS(=O)(=O)C(F)(F)F)cc2)c(O)nc2ccc(C(F)(F)F)cc12` gave a Relaxation in experiment [3] of 21%. Further, the Activity in experiment [1] came out at 235%.
The compound `O=S(=O)(CC(F)(F)F)Nc1ccc(Sc2c(O)nc3ccc(C(F)(F)F)cc3c2-c2cc(Cl)ccc2O)cc1` gave an Activity in experiment [1] of 170%.
The compound `CC1CCCN(CCCC(=O)CSc2c(O)nc3ccc(C(F)(F)F)cc3c2-c2cc(Cl)ccc2O)C1` (stereo not drawn) yielded an Activity in experiment [1] of 271%.
In experiment [3], `O=C(CN1CCC(N2CCCCC2)CC1)Nc1ccc(Sc2c(O)nc3ccc(C(F)(F)F)cc3c2-c2cc(Cl)ccc2O)cc1` yielded a Relaxation of 45%. In experiment [1], the Activity was 283%.
The compound `O=C(CCN1CCCC1)CSc1c(O)nc2ccc(C(F)(F)F)cc2c1-c1cc(Cl)ccc1O` displayed a Relaxation in experiment [3] of 30%. This compound also gave an Activity in experiment [1] of 335%.
Take `O=S(=O)(CCCN1CCOCC1)Nc1ccc(Sc2c(O)nc3ccc(C(F)(F)F)cc3c2-c2cc(Cl)ccc2O)cc1`: the Relaxation in experiment [3] was 35%. Besides, in experiment [1], the Activity was 354%.
For `CN(C)CCCN(C)CC(O)CSc1c(O)nc2ccc(C(F)(F)F)cc2c1-c1cc(Cl)ccc1O` (stereo not drawn), the Activity in experiment [1] was 214%.
In turn, `COc1ccc(Cl)cc1-c1c(SCC(O)CN2CCN(c3ncccn3)CC2)c(O)nc2ccc(C(F)(F)F)cc12` (stereo not drawn) came in with an Activity in experiment [4] of 80%.
In experiment [1], `CC(=O)N1CCN(CCCC(=O)CSc2c(O)nc3ccc(C(F)(F)F)cc3c2-c2cc(Cl)ccc2O)CC1` had an Activity of 284%.
Compound `CCCS(=O)(=O)Nc1ccc(Sc2c(O)nc3ccc(C(F)(F)F)cc3c2-c2cc(Cl)ccc2OC)cc1` displayed an Activity in experiment [4] of 95%.
The same measure, in the same setting: the same measure for `CN(C)S(=O)(=O)Nc1ccc(Sc2c(O)nc3ccc(C(F)(F)F)cc3c2-c2cc(Cl)ccc2O)cc1`: 222%.
In experiment [1], `CN(CCCN1CCN(C)CC1)CCC(O)CSc1c(O)nc2ccc(C(F)(F)F)cc2c1-c1cc(Cl)ccc1O` (stereo not drawn) came in with an Activity of 515%.
`COc1ccc(Cl)cc1-c1c(SCC(O)CN2CCN(C)CC2)c(O)nc2ccc(C(F)(F)F)cc12` (stereo not drawn) gave an Activity in experiment [1] of 163%.
`O=S(=O)(Nc1ccc(Sc2c(O)nc3ccc(C(F)(F)F)cc3c2-c2cc(Cl)ccc2O)cc1)C(F)(F)F` came in with a Relaxation in experiment [3] of 32%. In experiment [1], the Activity worked out at 277%.
Regarding `CN(C)CCN(C)CC(=O)Nc1ccc(Sc2c(O)nc3ccc(C(F)(F)F)cc3c2-c2cc(Cl)ccc2O)cc1`, the Relaxation in experiment [3] amounted to 16%. In experiment [1], this compound showed an Activity of 231%.
Consider `COc1ccc(Cl)cc1-c1c(SCC(O)CN2CCSCC2)c(O)nc2ccc(C(F)(F)F)cc12` (stereo not drawn), for which the Activity in experiment [1] was found to be 97%.
`CN1CCN(C(=O)CSc2c(O)nc3ccc(C(F)(F)F)cc3c2-c2cc(Cl)ccc2O)CC1` came in with a Relaxation in experiment [3] of 14%. Further, in experiment [1], the Activity was determined as 422%.
Turning to `O=C(CCCN1CCC(N2CCCCC2)CC1)CSc1c(O)nc2ccc(C(F)(F)F)cc2c1-c1cc(Cl)ccc1O`, in experiment [1], the Activity was 298%.
As to `O=C(CN1CCOCC1)Nc1ccc(Sc2c(O)nc3ccc(C(F)(F)F)cc3c2-c2cc(Cl)ccc2O)cc1`, in experiment [3], the Relaxation was determined as 34%. Also, in experiment [2], the Activity turned out to be 296%.
In experiment [3], `O=C(CSc1c(O)nc2ccc(C(F)(F)F)cc2c1-c1cc(Cl)ccc1O)N1CCN(CCOCCO)CC1` came in with a Relaxation of 17%. The compound further returned an Activity in experiment [1] of 205%.
